Results: US20050202423A1, “Method for identifying compounds or lead structures against rna target motifs and rna/protein interactions” (priority 2000, published 2005)
Read-outs that look alike come from different tables or passages of the source.

How the values were obtained:
reverse transcriptase = reverse transcriptase (Human immunodeficiency virus type 1 group M subtype B, UniProt P04585); experiment: Standard transcriptase assay (specificity control); format: biochemical, HIV-1; details: 2.5 μM
Method: As a control of the target protein reverse transcriptase, another nucleic acid binding protein from HIV-1 was tested, to check the specificity of the identified Rev-binding antibiotics.

Rev protein [1] = biological target: T1, Rev protein (Human immunodeficiency virus type 1 group M subtype B, UniProt P04618); experiment: Surface plasmon resonance, Rev protein; format: binding, HIV; details: 100 μM antibiotic, 25° C.
T1 construct: the intact Rev protein and by the Rev peptide
Method: (§1) 20 μl 100 μM antibiotic in test buffer was injected at 25° C., rate 10 μl/s.
(§2) Surface plasmon resonance studies were performed with a Biocore 3000 instrument in the automatic mode.

Rev peptide / AIR = biological target: T2, Rev peptide / AIR (Human immunodeficiency virus type 1 group M subtype B, UniProt P04618); experiment: AIR screen (screen 2) of antibiotics: inhibition of Rev-activated AIR; format: biochemical, HIV; details: for AIR screen outcome (inhibition of AIR relative to HHR): 100 μM antibiotic, 250 nM Rev peptide
T2 construct: includes aminoacids 34 to 50 of the Rev protein
Method: (§3) Cleavage reactions with multiple turnover were performed at 32° C. in a test buffer containing 50 mM Tris (pH 7.9) and 25 mM NaCl. The total volume of the reactions was 50 μl in plates with 96 flat bottom wells. The fluorescence measurements were performed at an excitation wavelength of 489 nm, FAM emission at 520 nm and with the fluorescence detector Ascent Fluoroscan FL, as described by Jenne, A. et al., Rapid identification and characterization of hammerhead-ribozyme inhibitors using fluorescence-based technology, Nat Biotechnol 19, 56-61 (2001). Ribozyme (10 nM) and FRET-labeled substrate (200 nM) were first incubated in test buffer at room temperature for 5 min, followed by optional addition of Rev and/or antibiotic. The reactions were then incubated for 5 min at 32° C. and started by the addition of MgCl2 to a final concentration of 8 mM, using the dispensing function of the fluorometer. Negative controls were always included for reactions without ribozyme and were subtracted after the measurements.
(§4) Two different screening experiments were performed, one using the RRR reporter construct and the other using AIR. […] Each reaction which contained antibiotics also contained Rev peptide. For each antibiotic, three different reactions were performed: HHR, reporter construct (RRR or AIR), negative controls, which only contained antibiotic and Rev and substrate. The antibiotic concentrations were 100 μM in each case. After subtraction of the negative control, the rise in fluorescence in the first five minutes, corresponding to the initial rate of reaction, was divided by the rise in fluorescence in the standard reaction without antibiotic, containing the active state of the ribozyme (see also FIG. 10).
[…]. […] […].

RRR = experiment: Dependence of RRR cleavage activity on Rev (FRET ribozyme reaction); format: biochemical; details: for IC50: read-out: K inh (inhibition of RRR at the half maximal concentration of Rev)
Method: (§5) Negative control reactions without ribozymes were subtracted.
as §3

AIR = experiment: Dependence of AIR cleavage activity on Rev (FRET ribozyme reaction); format: biochemical; details: for EC50: read-out: Kact (activation of AIR)
Method: as §5, §3

hammerhead ribozyme HHR = experiment: HHR cleavage reaction (internal control, FRET); format: biochemical
Method: as §3, §4

Rev peptide = biological target: T3, Rev peptide (Human immunodeficiency virus type 1 group M subtype B, UniProt P04618); experiment: Surface plasmon resonance, Rev peptide; format: binding, HIV; details: 100 μM antibiotic, 25° C.
T3 construct: includes aminoacids 34 to 50 of the Rev protein
Method: as §1, §2

Rev peptide / RRR = biological target: T4, Rev peptide / RRR (Human immunodeficiency virus type 1 group M subtype B, UniProt P04618); experiment: RRR screen (screen 1) of antibiotics: restoration of cleavage activity; format: biochemical, HIV; details: 100 μM, 1 μM Rev-peptide
T4 construct: includes aminoacids 34 to 50 of the Rev protein
Method: as §3, with “Negative controls were always included for reactions without ribozyme and were subtracted after the measurements.” left out
Two different screening experiments were performed, one using the RRR reporter construct and the other using AIR. […] After subtraction of the negative control, the rise in fluorescence in the first five minutes, corresponding to the initial rate of reaction, was divided by the rise in fluorescence in the standard reaction without antibiotic, containing the active state of the ribozyme (see also FIG. 10). […]

RRR-RNA = experiment: Surface plasmon resonance, RRR-RNA surface; format: binding; details: 100 μM antibiotic, 25° C.
Method: 20 μl 100 μM antibiotic in test buffer was injected at 25° C., rate 10 μl/s. […] There is no binding to RRR-derivatized surfaces detectable. Coumermycin only binds to Rev, but not to ribozymes. FIG. 13b illustrates the interaction between novobiocin, rosamicin, griseofulvin, streptolydigin and patulin with surfaces derivatized with Rev protein.
Surface plasmon resonance studies were performed with a Biocore 3000 instrument in the automatic mode. Rev protein and peptide surfaces were prepared by injection of 100 μM solutions in 60 mM NaOAc, pH 5.7 on EDC/NHS-activated CM5-Chips, which gave 1800 RU immobilized peptide and 5000 RU protein.

Rev protein [2] = biological target: Rev protein (HIV-1, UniProt P04618 P04618:1-116); experiment: inhibition; K inh of ribozyme; 8 mM MgCl2, 32 C; details: tags: full-length; label: biotin (SPR surface) or 5'-32P (filter); hammerhead ribozyme
Rev protein [3] = biological target: T5, Rev protein (HIV-1, UniProt P04618 P04618:1-116); experiment: cleavage_in_vitro; K act of ribozyme; 8 mM MgCl2, 32 C; details: tags: full-length
Rev protein [4] = biological target: T5, Rev protein; experiment: competition; 2 uM RNA competes with IRK-1 for 200 nM Rev; 10 mM HEPES pH 7.4, 100 mM NaCl, 10 mM MgCl2; details: tags: full-length

For `Nc1ccn([C@H]2CC[C@@H](COP(=O)(O)OP(=O)(O)OP(=O)(O)O)O2)c(=O)n1` [ddCTP], the “inhibition of reverse transcriptase” value (reverse transcriptase) was “total inhibition”.

With `COC1=CC(=O)C[C@@H](C)[C@]12Oc1c(Cl)c(OC)cc(OC)c1C2=O` [griseofulvin] the “binding to surface derivatized with Rev protein” value (“binding … with Rev protein” for short) (Rev protein [1]) was “Only the antibiotics novobiocin and patulin, which were identified in the course of screening, exhibited binding to Rev”.

`C=C(NC(=O)c1csc(-c2nc3c(cc2O)-c2nc(cs2)C(=O)NC(C(C)O)C(=O)N/C(=C\C)c2nc(cs2)C(=O)NC2CC(O)C(=O)OCc4cccc5[nH]c(c(C)c45)C(=O)SCC(NC(=O)c4csc2n4)c2nc-3cs2)n1)C(N)=O` (centres unmarked) [nosiheptide] was tested, and the “AIR screen outcome (inhibition of AIR relative to HHR)” value (Rev peptide / AIR) was “Rev inhibitors”.

For `CO[C@@H]1[C@@H](OC(N)=O)[C@@H](O)[C@H](Oc2ccc3c(O)c(NC(=O)c4ccc(O)c(CC=C(C)C)c4)c(=O)oc3c2C)OC1(C)C` [novobiocin], the “binding … with Rev protein” value (Rev protein [1]) was “exhibited binding”.

`O=C1C=C2C(=CCOC2O)O1` (centres unmarked) [patulin] was tested, and the “binding … with Rev protein” value (Rev protein [1]) was “exhibited binding” and the “AIR screen outcome (inhibition of AIR relative to HHR)” value (Rev peptide / AIR) was “Rev inhibitors”.

`CC[C@H]1OC(=O)C[C@@H](O)[C@H](C)[C@@H](O[C@@H]2O[C@H](C)C[C@H](N(C)C)[C@H]2O)[C@@H](CC=O)C[C@@H](C)C(=O)/C=C/[C@]2(C)O[C@H]2[C@@H]1C` [rosamicin] was tested, and the “binding … with Rev protein” value (Rev protein [1]) was “Only the antibiotics novobiocin and patulin, which were identified in the course of screening, exhibited binding to Rev”.

`CNC(=O)[C@@H](C)[C@H]1C(=O)/C(=C(O)/C=C/C(C)=C/[C@@H](C)[C@H]2O[C@@]3(C)O[C@H](C=C[C@@]34CO4)[C@@H]2C)C(=O)N1[C@@H]1CC[C@H](O)[C@H](C)O1` [streptolydigin] was tested, and the “binding … with Rev protein” value (Rev protein [1]) was “Only the antibiotics novobiocin and patulin, which were identified in the course of screening, exhibited binding to Rev”.

For “Rev peptide: Rev peptide, which includes aminoacids 34 to 50 of the Rev protein (TRQARRNRRRRWRERQR; UniProt P04618 34-50, looked up, fragment)”, the “effect of Rev on ribozyme RRR” value (RRR; 1 μM Rev-peptide) was “inhibition”, the IC50 (RRR; Rev peptide) was 464 nM and the “concentration above which AIR is inhibited” value (AIR) was “above 800 nM”. The “effect of Rev on AIR” value (AIR; 250 nM Rev) was “activation”, the EC50 (AIR) was 170 nM and the “concentration above which HHR is inhibited” value (hammerhead ribozyme HHR) was “more than 1 μM”. The “initial activity of HHR” value (hammerhead ribozyme HHR; 1 μM Rev) was 93%, the “effect of Rev on wildtype HHR” value (hammerhead ribozyme HHR; 1 μM Rev-peptide) was “hardly affected” and the “concentration above which HHR is inhibited” value (hammerhead ribozyme HHR; listed as Rev) was “above 1 μM”.

With Rev protein: intact Rev protein of HIV the “concentration above which RRR is inhibited” value (RRR) was “above 1 μM”, the IC50 (RRR; Rev protein) was 1700 nM and the “concentration at which AIR is still activated” value (AIR) was “above 5 μM”. For the same molecule, the “inhibition of AIR by high concentrations” value (AIR) was “no observed inhibition” and the EC50 (AIR) was 192 nM.

coumermycin A1 was tested, and the “binding to surface derivatized with Rev peptide” value (Rev peptide) was “binding”, the “reversal of the action of Rev on RRR” value (Rev peptide / RRR) was “fully reversed” and the “binding to RRR-derivatized surface” value (RRR-RNA) was “no binding”. For the same molecule, the “binding … with Rev protein” value (Rev protein [1]) was “binding”, the “effect on wildtype HHR” value (hammerhead ribozyme HHR; 100 μM with 1 μM Rev-peptide) was “hardly affected” and the “AIR screen outcome (inhibition of AIR relative to HHR)” value (Rev peptide / AIR) was “Rev inhibitors”. For the same molecule, the “reversal of the action of Rev on AIR” value (Rev peptide / AIR; 100 μM, 250 nM Rev) was “fully reversed”.

B1: RRR (Rev-responsive ribozyme, RBE in stem II) (ssRNA)
RNA: GGGUCCUCUGAUGAGCUCUGGGCGCAGCUUCGGCUGACGGUACUUGCGAAACUCGU
With B1 the “apparent K (half saturation)” value (Rev protein [2]) was 1700 nM.

B2: AIR (aptamer-inhibited ribozyme) (ssRNA)
RNA: GGGACUCGCUUCGGCUUGAGAUACCAAAAAGGGUCCUCUGAUGAGGCCGUUAGGCCGAAACUCGU
For B2, the “apparent K (half saturation)” value (Rev protein [3]) was 192 nM.

GGGAGGUGGACUCCAGCUUCGGCUGUUGAGAUACACC (ssRNA) [Seq 5]: binds (Rev protein [4]).
